For data set [1], the system named is Rattus norvegicus. Conditions: for LC50 / LD50: acute.
The test system of a further data set is Oryctolagus sp. To be noted: dermal; for LD50: acute.
Data set [2] deals with Mus musculus.
For a further data set, the system named is Canidae. To be noted: chronic, oral, diet, Dog Other.
Data set [3] deals with Mus musculus. Conditions: oral, gavage.
Data set [4] deals with Rattus norvegicus. To be noted: short-term; duration: 28 days; oral; gavage; M/F; Clinical Observation: Tremor.
In data set [5] the test system is Rattus norvegicus. To be noted: oral.
The mark [6] stands for this setting: reproduction developmental, duration: 4 weeks, Inhalation, F, CD.
Where [7] appears, read: reproduction developmental, duration: 4 weeks, Inhalation, M, CD.
The mark [8] stands for this setting: reproduction developmental, duration: 10 days, oral, gavage, Crl:CD(SD).
[9] abbreviates: duration: 1 years, M/F, Liver effects + organ weight changes.
Setting [10] is: duration: 1 years, M/F, thyroid toxicity.
Where [11] appears, read: subchronic, duration: 30 days, F, C57BL/6, Cardiovascular: Heart: Heart Weight, Relative + Hepatic: Liver: Liver Weight, Relative + Immune: Multi-Organ: Immunoglobulin M (IgM), Serum….
The mark [12] stands for this setting: subchronic, duration: 30 days, M, C57BL/6, Cardiovascular: Heart: Heart Weight, Relative + Hepatic: Liver: Liver Weight, Relative + Immune: Multi-Organ: Immunoglobulin M (IgM), Serum….
The mark [13] stands for this setting: subchronic, duration: 30 days, M, C57BL/6, Hepatic: Liver: Liver Weight, Relative.
[14] abbreviates: duration: 2 years, M/F, cholinesterase inhibition.
Where [15] appears, read: short-term, duration: 28 days, F, C57BL/6, Liver: Acyl-CoA Oxidase Activity, Liver + Multi-organ: IgM Serum Titer + Spleen: Spleen Weight, Absolute + Spleen: Spleen Weight, Relative.
Where [16] appears, read: short-term, duration: 28 days, F, C57BL/6, Liver: Liver Weight, Absolute + Liver: Liver Weight, Relative.
The mark [17] stands for this setting: short-term, duration: 28 days, M, C57BL/6, Liver: Acyl-CoA Oxidase Activity, Liver + Liver: Liver Weight, Absolute + Liver: Liver Weight, Relative.
Setting [18] is: short-term, duration: 28 days, M, C57BL/6, Spleen: CD4-/CD8- Cell Count + Spleen: CD4+/CD8+ Cell Count + Spleen: CD8+ Cell Count.
Setting [19] is: duration: 2 years, M/F, liver toxicity.
The mark [20] stands for this setting: duration: 1 years, M/F, tremors.
The mark [21] stands for this setting: Hershberger, duration: 7 days, gavage, Sprague-Dawley, active + Antiandrogenic + anti-androgenic + no AST effects in pairwise comparison but increasing trend for LABC and DL prostate / ….
The mark [22] stands for this setting: M/F, reduced body weight gain, skeletal myopathy, slight anemia, bone marrow hyperplasia, increased serum sgot, sgpt, cpk.
The mark [23] stands for this setting: duration: 1 years, M/F, liver cell enlargement.
[24] abbreviates: duration: 2 years, M/F, elevated alkaline phosphatase + Increase in thyroid/body weight ratio + slight increase in liver weights.

“And” between values parts separate entries of the source, which are not always exact repeats. Equal values may be shown once. Where only a bound is given, the exact number is not on record here.

Turning to `N#Cc1cccc(C#N)c1` [1,3-Benzenedicarbonitrile], in the data set on Rattus norvegicus [1] (Inhalation, Sprague-Dawley), the LC50 was more than 8970 mg/m3. Further, the LD50 with Rattus norvegicus [1] (oral, gavage) was more than 5010 mg/kg; with Oryctolagus sp. (occlusive), more than 2000 mg/kg. The NOAEL in the data set on Rattus norvegicus [1] (chronic, duration: 99 days, oral, diet, F, Charles River Crl:CD BR VAF/PLUS) amounted to 5 mg/kg-day; with Rattus norvegicus [1] (chronic, duration: 99 days, oral, diet, M, Charles River Crl:CD BR VAF/PLUS), 1 mg/kg-day; in the data set with Rattus norvegicus [1] (reproduction developmental, duration: 122 days, oral, diet, F), 25 mg/kg-day; in the data set on Rattus norvegicus [1] (short-term, duration: 14 days, Inhalation, Sprague-Dawley) it was 190 mg/m3; with Oryctolagus sp. (short-term, duration: 3 weeks, non-occlusive, New Zealand) it was 500 mg/kg-day; in the data set on Mus musculus [2] (chronic, duration: 91 days, oral, diet, CD1), 20 mg/kg-day.
With `C1CN(SSN2CCOCC2)CCO1` [4,4'-Dithiodimorpholine], the LD50 in the data set on Rattus norvegicus [1] (oral, gavage, Sprague-Dawley) was 5600 mg/kg; in the data set on Oryctolagus sp. (occlusive, New Zealand), more than 5010 mg/kg. Besides, the LOAEL came to 29 mg/m3 in the data set on Rattus norvegicus [1] (setting [6]), 9.9 mg/m3 in the data set on Rattus norvegicus [1] (setting [7]) and 500 mg/kg-day in the data set on Rattus norvegicus [1] (setting [8]). The NOAEL was found to be 9.9 mg/m3 in the data set on Rattus norvegicus [1] (setting [6]), 1.1 mg/m3 in the data set with Rattus norvegicus [1] (setting [7]) and 100 mg/kg-day with Rattus norvegicus [1] (setting [8]). In the data set on Mus musculus [2] (acute, inhalation), this compound returned an LC50 of 1620 mg/m3.
Turning to `Clc1ccccc1-c1nnc(-c2ccccc2Cl)nn1` [Clofentezine], in the data set on Canidae (setting [9]), the LEL stood at 25 mg/kg-day and the NOEL came out at 1.25 mg/kg-day.
In the data set on Canidae (setting [10]), `CC(=O)O.CCCCCCCCCCCCN=C(N)N` [Dodecylguanidine acetate] had an LEL of 5 mg/kg-day and an NOEL of 1.25 mg/kg-day.
For `O=C(O)C(F)(F)C(F)(F)OC(F)(F)F` [Perfluoro-3-methoxypropanoic acid], the NOAEL with Mus musculus [3] (setting [11]) and in the data set on Mus musculus [3] (setting [12]) was 50 mg/kg-day throughout.
Take `O=C(O)C(F)(F)C(F)(F)C(F)(F)OC(F)(F)F` [Perfluoro(4-methoxybutanoic acid)]: the LOAEL with Mus musculus [3] (setting [11]), in the data set with Mus musculus [3] (setting [12]) and in the data set with Mus musculus [3] (setting [13]) was 50 mg/kg-day throughout. Besides, the NOAEL in the data set with Mus musculus [3] (setting [12]) turned out to be 5 mg/kg-day; in the data set on Mus musculus [3] (subchronic, duration: 30 days, M, C57BL/6, Cardiovascular: Heart: Heart Weight, Relative + Immune: Multi-Organ: Immunoglobulin M (IgM), Serum + Immune: Multi-Organ: Natural Killer (NK…), 50 mg/kg-day; with Mus musculus [3] (setting [13]), 5 mg/kg-day.
`CCOP(=O)(NC(C)C)Oc1ccc(SC)c(C)c1` (configuration not stated) [Fenamiphos]: in the data set on Canidae (setting [14]), the LEL was 0.05 mg/kg-day and the NOEL was found to be 0.025 mg/kg-day.
For the compound `O=C(O)C(F)(OC(F)(F)C(F)(F)C(F)(F)F)C(F)(F)F` (configuration not stated) [Perfluoro-2-methyl-3-oxahexanoic acid], the LEL with Mus musculus [3] (setting [15]) is 100 mg/kg-day; with Mus musculus [3] (setting [16]), 10 mg/kg-day; in the data set with Mus musculus [3] (setting [17]), 10 mg/kg-day; with Mus musculus [3] (setting [18]), 100 mg/kg-day. Besides, the NEL came out at 10 mg/kg-day in the data set with Mus musculus [3] (setting [15]); 1 mg/kg-day in the data set on Mus musculus [3] (setting [16]); 100 mg/kg-day in the data set with Mus musculus [3] (short-term, duration: 28 days, F, C57BL/6, Spleen: B Cell Count + Spleen: CD4-/CD8- Cell Count + Spleen: CD4+ Cell Count + Spleen: CD4+/CD8+ Cell Count + Spleen: CD8+ Cell Count + …); 1 mg/kg-day with Mus musculus [3] (setting [17]); 100 mg/kg-day with Mus musculus [3] (short-term, duration: 28 days, M, C57BL/6, Multi-organ: IgM Serum Titer + Spleen: B Cell Count + Spleen: CD4+ Cell Count + Spleen: Spleen Weight, Absolute + Spleen: Spleen Weight, …); 10 mg/kg-day with Mus musculus [3] (setting [18]).
In the data set on Canidae (setting [19]), `COc1nn(CSP(=S)(OC)OC)c(=O)s1` [Methidathion] registered an LEL of 0.4 mg/kg-day and an NOEL of 0.1 mg/kg-day.
For the compound `Cc1c(COC(=O)[C@@H]2[C@H](/C=C(\Cl)C(F)(F)F)C2(C)C)cccc1-c1ccccc1` [Bifenthrin], the LEL in the data set with Canidae (setting [20]) was 3 mg/kg-day; in the data set with Rattus norvegicus [5] (uterotrophic, duration: 3 days, Active), 13.2 mg/kg-day. The NOEL is 1.5 mg/kg-day in the data set with Canidae (setting [20]); 50 ppm in the data set with Rattus norvegicus [4]; 10 mg/kg-day in the data set with Rattus norvegicus [5] (setting [21]); 10 mg/kg-day in the data set with Rattus norvegicus [5] (Hershberger, duration: 10 days, gavage, Sprague-Dawley, inactive + Negative + Negative + neither + negative). Moreover, the LOEL in the data set with Rattus norvegicus [5] (setting [21]) is 13.5 mg/kg-day.
`Oc1cc(Cl)ccc1Cl` [2,5-Dichlorophenol]: in the data set on Rattus norvegicus [1] (inhalation, Spartan), the LC50 is more than 185000 mg/m3. The LD50 was 2480 mg/kg in the data set with Rattus norvegicus [1] (oral, gavage, Wistar); more than 8000 mg/kg with Oryctolagus sp. (occlusive, New Zealand); ≥ 946 mg/kg and ≤ 1600 mg/kg in the data set with Mus musculus [2] (acute, oral, gavage, CD1). The lowest observed adverse effect level (LOAEL) in the data set on Rattus norvegicus [1] (reproduction developmental, duration: 4 weeks, inhalation, Sprague-Dawley) was found to be 0.1 mg/L; in the data set with Oryctolagus sp. (reproduction developmental, duration: 21 days, non-occlusive, New Zealand) it was 1 mg/kg-day.
As for `[S-]c1nc2ccccc2s1.[S-]c1nc2ccccc2s1.[Zn+2]` [Zinc 2-mercaptobenzothiazolate], the LD50 in the data set on Rattus norvegicus [1] (oral, Sprague-Dawley) was 5500 mg/kg; with Rattus norvegicus [1] (oral, gavage, Sprague-Dawley), 7500 mg/kg; in the data set with Oryctolagus sp. (New Zealand) it was more than 2000 mg/kg; with Oryctolagus sp. (occlusive, New Zealand), more than 7940 mg/kg. In the data set on Mus musculus [2] (reproduction developmental, duration: 18 months, oral), this compound gave an NOAEL of 1000 mg/kg-day.
In the data set on Canidae (duration: 6 months, M/F, increased liver weight), `Nc1c(Cl)c(Cl)nc(C(=O)O)c1Cl` [Picloram] registered an NOEL of 7 mg/kg-day. The compound further displayed an LEL in the data set with Canidae (duration: 6 months, M, increased liver weight) of 35 mg/kg-day.
In the data set on Canidae (setting [22]), `CC(C)C1(C)N=C(c2nc3ccccc3cc2C(=O)O)NC1=O` (configuration not stated) [Imazaquin] registered an LEL of 125 mg/kg-day and an NOEL of 25 mg/kg-day.
In the data set with Canidae (setting [23]), `C[Si](Cn1cncn1)(c1ccc(F)cc1)c1ccc(F)cc1` [Flusilazole] came in with an LEL of 0.7 mg/kg-day and an NOEL of 0.2 mg/kg-day.
Consider `c1ccc(-c2ccccc2)cc1` [Biphenyl], for which the LD50 in the data set with Rattus norvegicus [1] (oral, Sprague-Dawley) was 2400 mg/kg; in the data set on Rattus norvegicus [1] (oral, gavage, Sprague-Dawley), 3280 mg/kg; in the data set with Oryctolagus sp. (New Zealand) it was more than 5010 mg/kg. Besides, the NOAEL stood at 78 mg/kg-day in the data set with Rattus norvegicus [1] (chronic, duration: 750 days, oral, diet); 500 mg/kg-day with Rattus norvegicus [1] (developmental, duration: 10 days, oral, gavage, Wistar); 500 mg/kg-day with Rattus norvegicus [1] (reproduction developmental, duration: 10 days, oral, gavage, F, Wistar); 1000 ppm in the data set with Rattus norvegicus [1] (reproduction developmental, duration: 750 days, oral, diet, generation: F0); 5000 ppm in the data set on Rattus norvegicus [1] (reproduction developmental, duration: 750 days, oral, diet, generation: F1); 1000 ppm in the data set with Rattus norvegicus [1] (reproduction developmental, oral, diet, Long-Evans, generation: F0). The LOAEL with Mus musculus [2] (subchronic, duration: 13 weeks, inhalation, CD1) was found to be 158 mg/m3.
For `O=C(O)CC(F)(F)C(F)(F)C(F)(F)C(F)(F)C(F)(F)C(F)(F)F` [2-(Perfluorohexyl)ethanoic acid], in the data set on Mus musculus [3] (short-term, duration: 28 days, M, CD1, Liver: Alanine Aminotransferase (ALT) + Liver: Albumin (A) + Liver: Alkaline Phosphatase (ALP) + Liver: Aspartate Aminotransferase (AST) + …), the NOAEL came out at 5 mg/kg-day. In the data set on Mus musculus [3] (short-term, duration: 28 days, M, CD1, Liver: Total Cholesterol (CHOL)), the LOAEL was 5 mg/kg-day.
Consider `Cc1[nH]c(=O)n(C(C)(C)C)c(=O)c1Cl` [Terbacil], for which, in the data set on Canidae (setting [24]), the LEL amounted to 6.25 mg/kg-day and the NOEL worked out at 1.25 mg/kg-day.

Values taken from EPA's ToxValDB 9.5.
